In experiment [1] the target is Hsp90 chaperone machinery present in rabbit reticulocyte lysate. Kind of experiment: Hsp90-dependent refolding of thermally denatured luciferase in rabbit reticulocyte lysate (high-throughput screen and titration). Type of experiment: biochemical. The following applies: for Inhibition of Hsp90-dependent refolding of luciferase in the initial screen: 12.5 µg/mL (Analyticon compounds 40 µM), Microsource screen used a cut-off of 70% inhibition. As to the method:
Rabbit reticulocyte lysate, prepared by lysing one volume of packed reticulocytes in two volumes of deionized water, followed by centrifugation for twenty minutes at 15,000 × g, was purchased from Green Hectares (Oregon, WI, USA).
Recombinant luciferase from Promega was diluted to 0.5 mg/mL in buffer consisting of 25 mM Tricine–HCl (pH 7.8), 8 mM MgSO4, 0.1 mM EDTA, and 10 mg/mL acetylated BSA. Next, the solution was adjusted to include 10% glycerol and 1% Triton X-100. Finally, the luciferase solution was heated to ~41°. Once the activity of the luciferase reached ~1% of its initial value, the mixture was placed on ice, or flash frozen in liquid nitrogen and placed at −80° for storage.
To prepare the denatured luciferase for use in re-folding assays, 125 µL of the 0.5 mg/mL mixture was added into a 10 mL mixture containing 80 mM Tris HCl, pH 7.7, 8 mM Mg(OAc)2, 300 mM KCl, 12 mM ATP, and 20 mM creatine phosphate, and 0.8 mg/mL creatine phosphokinase.
The assay buffer, which contains the luciferase substrate luciferin, consisted of 75 mM Tricine-HCl, pH 7.8, 24 mM MgSO4, 300 µM EDTA, 2 mM DTT, 313 µM D-luciferin, 640 µM coenzyme A, 660 µM ATP, 150 mM KCl, 10% (v/v) Triton X-100, 20% (v/v) glycerol, and 3.5% DMSO.
The libraries were screened for compounds that inhibited the refolding of thermally denatured luciferase using a high-throughput assay carried out with a slight modification of the method previously described. Briefly, compounds were reconstituted in 100% DMSO. Stocks of compounds purchased from Microsource, TimTec, Biofocus and BioMol were reconstituted to a concentration of 1 mg/mL. The stocks were diluted 40-fold into nano-pure water with the compounds being used at a final concentration of 12.5 µg/mL for the assay. Analyticon compounds (0.2 µmol) were reconstituted to a concentration of 4 mM, and were used at a final concentration of 40 µM in the assay. Assays were performed in 96-well microplates. To each well was added 30 µL of the water/DMSO compound solution, 15 µL of the reticulocyte lysate preparation, and 15 µL of the luciferase reagent. The plates were agitated and then allowed to incubate at 25 °C for one to three hours. After the incubation, 60 µL of assay buffer containing luciferin was added to each well. The plates were then read in a Molecular Devices LMaxII^384 microplate reader, and luminescence was measured in relative light units, with an integration time of 10 s. Compounds that inhibited luciferase refolding by approximately fifty percent or greater were then titrated into a refolding reaction containing native luciferase, to eliminate false positive hits that were direct inhibitors of luciferase as previously described. Compounds were classified as a potential Hsp90 inhibitor if they inhibited luciferase refolding by 60% or greater and there was no inhibition of the activity of native luciferase at the compound’s IC50 (concentration of the compound that inhibits luciferase refolding by 50%).
The titrations were repeated twice. For a more accurate determination of the IC50s for the compounds studied in Section 3.2.1 of this manuscript, a two-fold […] series of the compounds were used in triplicate, with the experiment being repeated three times.

Experiment [2] relates to heme-regulated eIF2α kinase (HRI). Kind of experiment: Hsp90-dependent maturation of the heme-regulated eIF2α kinase (HRI) in reticulocyte lysate. Type of experiment: biochemical, rabbit. The following applies: heme-deficient lysate, mobility shift on PAGE. As to the method: [^35S]-Labeled His-tagged HRI was translated by coupled transcription/translation for 20 min in TnT reticulocyte lysate at 30 °C. Drugs or DMSO vehicle control were then added. After an additional 10 min, the reactions (4 µL aliquots) were diluted into 28 µL volumes of heme-supplemented control lysate or heme-deficient lysate, containing the same respective drugs and DMSO vehicle control. The samples were allowed to incubate for another 40 min at 37 °C. The [^35S]-Labeled His-tagged HRI was then adsorbed from the reactions with NTA-Ni^2+ agarose resin for 1 h at 4 °C. The agarose resins were the washed four times total, in P50T, P100T 2X, and P50T again. SDS sample buffer was then added to the pellets, the samples boiled, and then separated on an 8% PAGE gel, and transferred to PVDF membrane. Membranes were dried and exposed to X-ray film for autoradiography.

Experiment [3] concerns Hsp90-dependent client proteins Cdk6, pAkt, Her2; Hsp90 and Hsp70 in MCF7 cells. Kind of experiment: Inhibitor-dependent depletion of Hsp90-dependent clients from MCF7 cells (Western blot). The experiment is classed as cell-based, human. The following applies: 24 h. As to the method: MCF7 cells were grown to confluence in Advanced DMEM/F12 (1:1; Gibco) supplemented with L-glutamine (2 mM), streptomycin (500 µg/mL), and penicillin (100 units/mL) and re-seeded at 0.4 × 10^6 cells/well/2 mL. Cells were incubated in a humidified atmosphere (37 °C, 5% CO2) for 24 h and treated with varying concentrations of compound or 0.5 µM geldanamycin in DMSO (0.25% DMSO final concentration), or vehicle (DMSO) for 24 h. Cells were harvested in cold PBS and lysed using MPER (Thermo Scientific/Pierce, USA) supplemented with protease and phosphatase inhibitors (Roche Applied Science, USA) according to manufacturer’s directions. Lysates were clarified at 14,000 g for 15 min at 4 °C. Protein concentrations were determined using the Pierce BCA protein assay kit per the manufacturer’s instructions. Equal amounts of protein (15 μg) were electrophoresed under reducing conditions (10% acrylamide gels), transferred to PVDF, and immunoblotted with the corresponding antibody (Anti-pAkt, -Her2, and -Cdk6 antibodies were from Cell Signaling; anti-actin was from Santa Cruz Biotechnology; and anti-Hsp90 and -Hsp70 were from Enzo Lifesciences). Membranes were incubated with an appropriate horseradish peroxidase-labeled secondary antibody, developed with a chemiluminescent substrate, and visualized.

The next experiment relates to MCF7 breast cancer cells. Kind of experiment: Antiproliferation assay (MTS), MCF7 cells. The experiment is classed as cell-based. The following applies: Homo sapiens. Here is the method:
MCF7 cells were grown in Gibco Dulbecco’s Modified Essential Medium, supplemented with non-essential amino acids, 2 mM glutamine, and 10% fetal bovine serum. Cells were seeded at 2,000 cells per well in clear 96-well plates containing 100 µL of media per well, and the cells were allowed to attach overnight. The next day, serial dilutions of compounds in DMSO or DMSO control was added to the wells. Cells were then incubated at 37 °C for 48 h. Cell viability was determined using the Promega Cell Titer 96 Aqueous One Solution Cell Proliferation Assay, which makes use of a soluble tetrazolium compound that is converted into a chromophore by living cells. After incubation with compounds, 20 µL of the assay substrate solution were added to the wells, and the plate was incubated at 37 °C for an additional hour. The plate was then read at absorbance at 490 nm using a Molecular Devices Versamax plate reader. Values are expressed as percent DMSO control. All experiments were done in triplicate.

For another experiment, the system named is Plasmodium falciparum. Details: method as in PMID 17913482. The following applies: cited from earlier work.
The mark [4] stands for this setting: MCF7 cells, 48 h, MTS assay, read-out: IC50 MCF7 proliferation.

Where two headings read alike, the source gives them in different places.

Compound `C=C1C(=O)O[C@@H]2C[C@@H](C)[C@@H]3C=CC(=O)[C@@]3(C)[C@@H](O)[C@H]12` [Compound 9, Helenalin] gave an IC50 in experiment [1] of about 80 µM.
For `O=c1cc(-c2ccc(O)c(O)c2)oc2cc(O)cc(O)c12` [Compound 31, Luteolin], the “Inhibition of Hsp90-dependent refolding of luciferase in the initial screen” value in experiment [1] is on record as “no inhibitory activity in one of the screens”.
Regarding `CC(C)=CCC[C@]1(C)C=Cc2c(O)c3c(c(CC=C(C)C)c2O1)O[C@]12C(=C[C@@H]4C[C@H]1C(C)(C)O[C@@]2(C/C=C(/C)C(=O)O)C4=O)C3=O` [Compound 35, Gambogic acid], in experiment [1], the “Inhibition of Hsp90-dependent refolding of luciferase in the initial screen” value is on record as “consistently identified as hits”.
The same measure, in the same setting: for `COc1cc(/C=C/C(=O)CC(=O)/C=C/c2ccc(O)c(OC)c2)ccc1O` [Compound 40, Curcumin] the value was “consistently identified as hits”.
`CC(=O)c1c(O)c(C)c(O)c(Cc2c(O)c3c(c(C(=O)/C=C/c4ccccc4)c2O)OC(C)(C)C=C3)c1O` [Compound 47, Rottlerin]: the “Inhibition of Hsp90-dependent maturation of HRI” value (“Inhibition … of HRI” for short) in experiment [2] (100 µM) is reported as “inhibited the maturation of HRI”. In experiment [3] (varying concentrations), the “Depletion of Hsp90 clients (Cdk6, pAkt, Her2)” value (“Depletion of Hsp90 clients” below) was “concentration-dependent depletion”; the “Expression of Hsp70” value is given as “concentration-dependent increase”; the “Expression of Hsp90” value was “None of the compounds increased the expression of Hsp90”. Besides, the IC50 in the experiment with MCF7 breast cancer cells (setting [4]) came to 7 ± 3 µM. The same compound yielded an IC50 in experiment [1] of about 60 µM. Besides, in experiment [1] (read-out: IC50 luciferase refolding), the IC50 is 63 ± 5 µM.
As for `COC(=O)[C@]1(C)CC[C@]2(C)CC[C@]3(C)C4=CC=C5C(=CC(=O)C(O)=C5C)[C@]4(C)CC[C@@]3(C)[C@@H]2C1` [Compound 49, Celastrol methyl ester], the IC50 in experiment [1] was about 2 µM.
Turning to `CC(=O)O[C@@H]1C[C@@]2(C)[C@H](c3ccoc3)C[C@H]3O[C@]32[C@]2(C)C(=O)C(O)=C3C(C)(C)C(=O)C=C[C@]3(C)[C@@H]12` [Compound 50, Anthothecol], in experiment [2] (100 µM), the “Inhibition … of HRI” value is given as “inhibited the maturation of HRI”. Besides, in the experiment on Plasmodium falciparum, the “Activity against the growth of Plasmodium falciparum in erythrocytes” value is “low micromolar activity”. For the same compound, in experiment [3] (varying concentrations), the “Depletion of Hsp90 clients” value was “concentration-dependent depletion”; the “Expression of Hsp70” value is recorded as “concentration-dependent increase”; the “Expression of Hsp90” value is on record as “None of the compounds increased the expression of Hsp90”. Also, in the experiment with MCF7 breast cancer cells (setting [4]), the IC50 came out at 0.5 ± 0.06 µM. Besides, the “Fold higher activity than gedunin” value in experiment [1] (relative to the Hsp90 inhibitor gedunin, assay not specified) is given as “approximately 10 fold”.
Consider `CC1=CC(=O)c2c(O)cccc2C1=O` [Compound 84, Plumbagin], for which, in experiment [1], the “Inhibition of Hsp90-dependent refolding of luciferase in the initial screen” value was “consistently identified as hits”.
Regarding `C=C1CCC(O)CC1=CC=C1CCCC2(C)C1CCC2C(C)CCCC(C)C` (centres unmarked) [Compound 98], the IC50 in experiment [1] was about 60 µM.
In experiment [1], `COc1c2c3c4c(c(OC)c(=O)c5c(O)cc(OC)c(c6c(OC)cc(O)c(c1=O)c63)c54)[C@@H](C(C)=O)[C@@](C)(O)C2` [Compound 116, Hypocrellin A] yielded an IC50 of 5 to 10 µM.
As for `C=C(C)[C@@H](CC=C(C)C)C[C@@]12C[C@@H](CC=C(C)C)C(C)(C)[C@@](CC=C(C)C)(C(=O)C(C(=O)c3ccc(O)c(O)c3)=C1O)C2=O` [Garcinol], in experiment [2] (100 µM), the “Inhibition … of HRI” value is listed as “inhibited the maturation of HRI”. In experiment [3] (varying concentrations), the “Depletion of Hsp90 clients” value is recorded as “concentration-dependent depletion”; the “Expression of Hsp70” value was “no effect”; the “Expression of Hsp90” value is reported as “None of the compounds increased the expression of Hsp90”. Besides, the IC50 in the experiment on MCF7 breast cancer cells (setting [4]) came to 4 ± 0.6 µM.
As to `COc1cc(/C=C/C(=O)N2CCC=CC2=O)cc(OC)c1OC` [Piplartine], in experiment [2] (100 µM), the “Inhibition … of HRI” value was “inhibited the maturation of HRI”. Also, in experiment [3] (varying concentrations), the “Depletion of Hsp90 clients” value is “concentration-dependent depletion”; the “Expression of Hsp70” value is listed as “no effect”; the “Expression of Hsp90” value was “None of the compounds increased the expression of Hsp90”. Further, in the experiment on MCF7 breast cancer cells (MCF7, 48 h, read-out: IC50 MCF7 proliferation (µM)), the IC50 turned out to be 10 ± 3 µM.
For the compound `COC1=C2C[C@@H](C)C[C@H](OC)[C@H](O)[C@@H](C)/C=C(\C)[C@H](OC(N)=O)[C@@H](OC)/C=C\C=C(/C)C(=O)NC(=CC1=O)C2=O` [geldanamycin, reference compound], the “Inhibition … of HRI” value in experiment [2] (20 µM) is reported as “inhibited the maturation of HRI”. Further, the “Expression of Hsp70” value in experiment [3] (0.5 µM) is recorded as “increase in the expression of Hsp70”.
As to `[Na+].[Na+].[O]=[Mo](=[O])([O-])[O-]` [molybdate, sodium molybdate, reference compound], in experiment [2], the “Inhibition … of HRI” value is reported as “inhibited the maturation of HRI”.
Consider `CO[C@@H]1[C@@H](OC(N)=O)[C@@H](O)[C@H](Oc2ccc3c(O)c(NC(=O)c4ccc(O)c(CC=C(C)C)c4)c(=O)oc3c2C)OC1(C)C` [novobiocin, reference compound], for which, in experiment [2], the “Inhibition … of HRI” value is “inhibited the maturation of HRI”.
In experiment [1], L-Adrenaline [Compound 99] came in with an IC50 of about 55 µM.
Regarding Tyrothricin [Compound 74], the IC50 in experiment [1] is about 5 µM.
